# Experimental data as given in US20250194596A1 (priority 2023, published 2025).
# Structures can show the parent of a compound that is named as a salt. Where two headings read alike, the source gives them in different places.
# Assays:
# CLas [1] = assay type: in vivo, Candidatus Liberibacter asianticum
# CLas [2] = assay type: in vivo, Candidatus Liberibacter asianticum; settings: injection into the tree trunks for one week
# [3] = assay type: physicochemical; settings: 10 mg/mL in water
# [4] = on human beings and animals; cited from earlier work
compound,measurement,setting,value
"CC1(C)S[C@@H]2[C@H](NC(=O)[C@H](N)c3ccccc3)C(=O)N2[C@H]1C(=O)O [ampicillin, reference compound]",CLas content reduced,"CLas [1]; 12 mg/mL, mesophyll injection, 3 d",more than 80%
O=C(/C=C/c1ccc(O)c(O)c1)O[C@@H]1C[C@](O)(C(=O)O)C[C@@H](O)[C@H]1O [chlorogenic acid],CLas content reduced,"CLas [1]; 0.5 mg/mL chlorogenic acid, mesophyll injection, 3 d",more than 60%
same,inhibitory effect on CLas,"CLas [1]; 10 mg/mL, mesophyll injection, 3 d",equivalent to that of 5 mg/mL
same,antibacterial effect on CLas,"CLas [1]; concentrations below 0.5 mg/mL, mesophyll injection, 3 d",not obvious
same,concentration achieving a significant inhibitory effect on CLas,CLas [1]; in vivo,not less than 5 mg/mL
same,reduction of CLas content,CLas [1]; injection into the mesophyll for 3 days,about 60%
same,minimum inhibitory concentration (MIC) of chlorogenic acid for CLas,"CLas [1]; mesophyll injection of HLB-infected leaves, CLas content after 3 d",500 µg/mL
same,reduction of CLas content,CLas [2],about 60%
same,appearance of solution,[3],turbid
"CN(C)[C@@H]1C(O)=C(C(N)=O)C(=O)[C@@]2(O)C(O)=C3C(=O)c4c(O)cccc4[C@@](C)(O)[C@H]3[C@H](O)[C@@H]12 [oxytetracycline hydrochloride, reference compound]",reduction of CLas content,"CLas [1]; 20 mg/mL, mesophyll injection, 3 d",about 20%
rhamnolipid,toxic or side effects,[4],no toxic or side effects
